Values of other authors, collected in patent publication US8568779B2, “Method for producing coenzyme Q10 particle” (Kaneka Corporation, priority 2007, dated 2013).

Settings: composition containing reduced coenzyme Q10 versus oxidized coenzyme Q10 alone

SMILES: COc1c(O)c(C)c(C/C=C(\C)CC/C=C(\C)CC/C=C(\C)CC/C=C(\C)CC/C=C(\C)CC/C=C(\C)CC/C=C(\C)CC/C=C(\C)CC/C=C(\C)CCC=C(C)C)c(O)c1OC [reduced coenzyme Q10]
- oral absorbability: superior to conventional oxidized coenzyme Q10 alone
